Measured values as given in patent publication US9931300B2, “Methods for superdisintegrant-based composite particles for dispersion and dissolution of active pharmaceutical agents” (New Jersey Institute of Technology, priority 2012, dated 2018).

Legend:
[1] = Particle size of as-received / dry powders (Rodos/Helos laser diffraction where stated); assay type: physicochemical; conditions: as-received or dry
Procedure: The particle sizes of GF suspensions after milling in Runs 2, 3, and 5 (about 10% GF/about 2.5% HPC) indicate that the milling results were fairly reproducible. […] The dry particle size of CCS, as measured by Rodos/Helos laser diffraction system, was D10: 12.90 μm, D50: 28.55 μm, and D90: 66.09 The particle size increased to D10:13.74 μm, D50: 63.68 μm and D90: 96.28 μm after about 3 h swelling in de-ionized water as measured by Coulter LS13320 with the liquid module.
The suspensions were coated onto Pharmatose® carrier particles in the fluidized bed processor. The particle size statistics of Pharmatose® as measured by Rodos is D10: 58 μm, D50: 116 μm and D90: 206 μm. The median particle size of Pharmatose® increased from about 116 μm to about 120-150 μm due to coating and some agglomeration.

[2] = USP II dissolution test of NCMPs in deionized water; assay type: physicochemical
Procedure: Dissolution tests were carried out in a standard USP II apparatus with about 50 rpm paddle speed. A sample of NCMPs (n=6) containing about 8.9 mg GF were dissolved in about 1000 ml deionized water at about 37° C., and samples taken from the vessel were syringe-filtered (0.1 μm filter) and assayed via UV spectroscopy. Unlike in the re-dispersion test, the use of a large amount of water ensures substantially full solubilization of the drug in this test.

[3] = cited from earlier work

SMILES	particle size D10 of as-received / dry powder [1]	particle size D50 of as-received / dry powder [1]	particle size D90 of as-received / dry powder [1]	GF dissolved in about 60 min [2]	solubility in methanol ([3]; methanol, about 25° C.)	solubility in water ([3]; water)
COC1=CC(=O)C[C@@H](C)[C@]12Oc1c(Cl)c(OC)cc(OC)c1C2=O [GF, griseofulvin]	3.9 μm	16.0 μm	47.4 μm	about 14%	about 30 mg/ml	
OC[C@@H](O)[C@@H](O)[C@H](O)[C@H](O)CO [Mannitol]						about 180 g/L
